Measured values reported in patent US11345711B2, “8,9-dihydroimidazo[1,2-a]pyrimido[5,4-e]pyrimidin-5(6H)-ones” (IMPACT THERAPEUTICS (SHANGHAI), INC, priority 2016, dated 2022).
pIC50: −log10 of the molar value. Where two headings read alike, the source gives them in different places.

Legend:
[1] = test system: NCI-H1299 cells; assay: MTT based cell viability assay on NCI-H1299 cells; conditions: for pIC50: read-out: IC50, growth inhibition of NCI-H1299 cells
Outline: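 Viability read-out was MTT reduction (0.5 mg/mL, 4 h, absorbance 552/630/690 nm) after 3-day compound exposure at 37 °C of NCI-H1299 cells seeded at 1000 per well. Dilutions spanned 10 μM–0.01 μM in DMSO, final DMSO 1‰. Survival-versus-concentration curves were fitted sigmoidally to give IC50.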

[2] = target: Wee1 (h) (Homo sapiens, UniProt P30291); assay: Wee1 kinase (h) detection method, [γ-33P]-ATP filter assay; format: biochemical
Sequence of Wee1 (h) (P30291 whole entry): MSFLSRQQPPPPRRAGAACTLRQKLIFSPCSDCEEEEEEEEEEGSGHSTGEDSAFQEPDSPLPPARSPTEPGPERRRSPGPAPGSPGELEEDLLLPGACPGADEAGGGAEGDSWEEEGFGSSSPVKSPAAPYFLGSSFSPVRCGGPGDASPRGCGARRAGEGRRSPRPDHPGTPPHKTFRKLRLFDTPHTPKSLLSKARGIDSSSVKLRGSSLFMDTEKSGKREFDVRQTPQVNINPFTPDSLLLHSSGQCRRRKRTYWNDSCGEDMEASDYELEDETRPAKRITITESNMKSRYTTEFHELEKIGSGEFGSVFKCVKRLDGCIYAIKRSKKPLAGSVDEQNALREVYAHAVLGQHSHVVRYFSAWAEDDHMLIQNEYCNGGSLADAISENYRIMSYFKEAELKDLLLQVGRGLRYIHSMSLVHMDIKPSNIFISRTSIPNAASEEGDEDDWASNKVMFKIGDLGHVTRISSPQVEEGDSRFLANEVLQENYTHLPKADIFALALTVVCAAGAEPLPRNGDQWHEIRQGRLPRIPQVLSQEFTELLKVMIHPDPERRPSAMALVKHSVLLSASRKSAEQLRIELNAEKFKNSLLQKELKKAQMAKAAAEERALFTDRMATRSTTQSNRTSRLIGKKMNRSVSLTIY

[3] = test system: LoVo cells; assay: MTT based cell viability assay on LoVo cells; conditions: for pIC50: Homo sapiens, LoVo, 72 h, 3 d, read-out: IC50, growth inhibition of LoVo cells
Outline: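 Inhibition of LoVo proliferation was derived as IC50 from a sigmoidal dose-response fit of cell survival. Readout was MTT (0.5 mg/mL, 4 h) with absorbance at 552/630/690 nm, after 3-day treatment at 37 °C. Eight-point series from 10 μM to 0.01 μM, DMSO control, 1% DMSO final.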

[4] = Homo sapiens, NCI-H1299, NCI-H1299 cells

SMILES	pIC50 ([1]; Homo sapiens, NCI-H1299 cells)	Inh. (%) of Wee1 kinase enzyme activity ([2]; C 1 μm compound) [%]	pIC50 [3]	inhibitory effect on the growth of NCI-H1299 cells compared with AZD1775 [1]	pIC50 [1, 4]	Inh. (%) of Wee1 kinase enzyme activity ([2]; C 0.01 μm compound) [%]	Inh. (%) of Wee1 kinase enzyme activity ([2]; C 0.1 μm compound) [%]	inhibitory effect on the growth of LoVo cells compared with AZD1775 [3]	pIC50 ([1]; NCI-H1299 cells)
CN(C)CCCN(C)c1ccc(Nc2ncc3c(n2)N2CCN=C2N(c2c(F)cccc2Cl)C3=O)cc1 [Example 111, 6-(2-Chloro-6-fluorophenyl)-2-((4-((3-(dimethylamino)propyl)(methyl)amino)phenyl)amino)-8,9-dihydroimidazo[1,2-a]pyrimido[5,4-e]pyrimidin-5(6H)-one]	6.04	96	6.08						
Cc1cc(Nc2ncc3c(n2)N2CCN=C2N(c2c(Cl)cccc2Cl)C3=O)ccc1N1CCN(C)CC1 [Example 75, 6-(2,6-Dichlorophenyl)-2-((3-methyl-4-(4-methylpiperazin-1-yl)phenyl)amino)-8,9-dihydroimidazo[1,2-a]pyrimido[5,4-e]pyrimidin-5(6H)-one]		100	7.40	stronger inhibitory effect on the growth of NCI-H1299 cells than AZD1775	6.79	24	80	stronger inhibitory effect on the growth of LoVo cells than AZD1775	
Cc1cc(Nc2ncc3c(n2)N2CCN=C2N(c2c(C)cccc2F)C3=O)ccc1N1CCN(C)CC1 [Example 62, 6-(2-Fluoro-6-methylphenyl)-2-((3-methyl-4-(4-methylpiperazin-1-yl)phenyl)amino)-8,9-dihydroimidazo[1,2-a]pyrimido[5,4-e]pyrimidin-5(6H)-one]	6.03	83	6.71						
CN1CCN(c2ccc(Nc3ncc4c(n3)N3CC(C)(C)N=C3N(c3c(F)cccc3Cl)C4=O)cc2)CC1 [Example 27, 6-(2-Chloro-6-fluorophenyl)-8,8-dimethyl-2-((4-(4-methylpiperazin-1-yl)phenyl)amino)-8,9-dihydroimidazo[1,2-a]pyrimido[5,4-e]pyrimidin-5(6H)-one]	< 5.00	17	< 4.00						
CC(C)N1CCN(c2ccc(Nc3ncc4c(n3)N3CCN=C3N(c3c(Cl)cccc3Cl)C4=O)cc2)CC1 [Example 63, 6-(2,6-Dichlorophenyl)-2-((4-(4-isopropylpiperazin-1-yl)phenyl)amino)-8,9-dihydroimidazo[1,2-a]pyrimido[5,4-e]pyrimidin-5(6H)-one]	6.44	99	7.11			17	76		
Cc1cc(Nc2ncc3c(n2)N2CCN=C2N(c2c(F)cccc2Cl)C3=O)cc(F)c1N1CCC(N(C)C)CC1 [Example 120, 6-(2-Chloro-6-fluorophenyl)-2-((3-fluoro-5-methyl-4-(4-(dimethylamino)piperidin-1-yl)phenyl)amino)-8,9-dihydroimidazo[1,2-a]pyrimido[5,4-e]pyrimidin-5(6H)-one]		98	7.44		7.23	16	80		
CN(C)CCOc1ccc(Nc2ncc3c(n2)N2CCN=C2N(c2c(F)cccc2Cl)C3=O)cc1 [Example 105, 6-(2-Chloro-6-fluorophenyl)-2-((4-(2-(dimethylamino)ethoxy)phenyl)amino)-8,9-dihydroimidazo[1,2-a]pyrimido[5,4-e]pyrimidin-5(6H)-one]	6.04	97	6.43			40	85		
CN1CCN(c2cnc(Nc3ncc4c(n3)N3CCN=C3N(c3c(F)cccc3Cl)C4=O)cn2)CC1 [Example 121, 6-(2-Chloro-6-fluorophenyl)-2-((5-(4-methylpiperazin-1-yl)pyrazin-2-yl)amino)-8,9-dihydroimidazo[1,2-a]pyrimido[5,4-e]pyrimidin-5(6H)-one]	< 5.00	15	< 4.00						
C[C@@H]1CN(c2ccc(Nc3ncc4c(n3)N3CCN=C3N(c3c(F)cccc3Cl)C4=O)cc2)C[C@H](C)N1C [Example 34, 6-(2-Chloro-6-fluorophenyl)-2-((4-((3S,5R)-3,4,5-trimethylpiperazin-1-yl)phenyl)amino)-8,9-dihydroimidazo[1,2-a]pyrimido[5,4-e]pyrimidin-5(6H)-one]	6.33	97	6.46			38	93		
CN1CCN(c2ccc(Nc3ncc4c(n3)N3CCN=C3N(C3CC3)C4=O)cc2)CC1 [Example 20, 6-Cyclopropyl-2-((4-(4-methylpiperazin-1-yl)phenyl)amino)-8,9-dihydroimidazo[1,2-a]pyrimido[5,4-e]pyrimidin-5(6H)-one]	< 5.00	9	< 4.00						
Cc1cc(Nc2ncc3c(n2)N2CCN=C2N(c2c(Cl)cccc2Cl)C3=O)cc(Br)c1N1CCN(C)CC1 [Example 156, 6-(2,6-Dichlorophenyl)-2-((3-bromo-5-methyl-4-(4-methylpiperazin-1-yl)phenyl)amino)-8,9-dihydroimidazo[1,2-a]pyrimido[5,4-e]pyrimidin-5(6H)-one]		96	7.20		6.82	19	81		
CN1CCN(c2ccc(Nc3ncc4c(n3)N3CCN=C3N(c3c(F)cccc3Cl)C4=O)cc2Cl)CC1 [Example 46, 6-(2-Chloro-6-fluorophenyl)-2-((3-chloro-4-(4-methylpiperazin-1-yl)phenyl)amino)-8,9-dihydroimidazo[1,2-a]pyrimido[5,4-e]pyrimidin-5(6H)-one]		97	7.58		6.28	36	85		
O=C1c2cnc(Nc3ccc(N4CCNCC4)cc3)nc2N2CCN=C2N1c1c(Cl)cccc1Cl [Example 175, 6-(2,6-Dichlorophenyl)-2-((4-(piperazin-1-yl)phenyl)amino)-8,9-dihydroimidazo[1,2-a]pyrimido[5,4-e]pyrimidin-5(6H)-one]	6.57	95	6.72						
COc1cc(Nc2ncc3c(n2)N2CCN=C2N(c2c(Cl)cccc2Cl)C3=O)cc(F)c1N1CCN(C)CC1 [Example 149, 6-(2,6-Dichlorophenyl)-2-((3-fluoro-5-methoxy-4-(4-methylpiperazin-1-yl)phenyl)amino)-8,9-dihydroimidazo[1,2-a]pyrimido[5,4-e]pyrimidin-5(6H)-one]		94	7.23		6.95	22	72		
COc1cc(Nc2ncc3c(n2)N2CCN=C2N(c2c(Cl)cccc2Cl)C3=O)cc(Cl)c1N1CCN(C)CC1 [Example 153, 6-(2,6-Dichlorophenyl)-2-((3-chloro-5-methoxy-4-(4-methylpiperazin-1-yl)phenyl)amino)-8,9-dihydroimidazo[1,2-a]pyrimido[5,4-e]pyrimidin-5(6H)-one]		94	7.25		6.63	30	84		
CN1CCN(c2ccc(Nc3ncc4c(n3)N3CCN=C3N(c3c(Cl)cccc3Cl)C4=O)cc2Cl)CC1 [Example 71, 2-((3-chloro-4-(4-methylpiperazin-1-yl)phenyl)amino)-6-(2,6-dichlorophenyl)-8,9-dihydroimidazo[1,2-a]pyrimido[5,4-e]pyrimidin-5(6H)-one]		98	7.35			36	74		6.22
CN1CCN(c2c(Cl)cc(Nc3ncc4c(n3)N3CCN=C3N(c3c(Cl)cccc3Cl)C4=O)cc2Cl)CC1 [Example 150, 6-(2,6-Dichlorophenyl)-2-((3,5-dichloro-4-(4-methylpiperazin-1-yl)phenyl)amino)-8,9-dihydroimidazo[1,2-a]pyrimido[5,4-e]pyrimidin-5(6H)-one]		93	6.94		6.46	20	81		
O=C1c2cnc(Nc3ccc(-n4ccnc4)cc3)nc2N2CCN=C2N1c1c(F)cccc1Cl [Example 102, 6-(2-Chloro-6-fluorophenyl)-2-((4-(1H-imidazol-1-yl)phenyl)amino)-8,9-dihydroimidazo[1,2-a]pyrimido[5,4-e]pyrimidin-5(6H)-one]	< 5.00	7	< 4.00						
Cc1cc(Nc2ncc3c(n2)N2CCN=C2N(c2c(Cl)cccc2Br)C3=O)cc(F)c1N1CCC(N(C)C)CC1 [Example 160, 6-(2-Bromo-6-chlorophenyl)-2-((4-(4-(dimethylamino)piperidin-1-yl)-3-fluoro-5-methylphenyl)amino)-8,9-dihydroimidazo[1,2-a]pyrimido[5,4-e]pyrimidin-5(6H)-one]		98	7.56		7.20	31	85		
